biological target: T1, human liver FBPase (Homo sapiens, UniProt P09467); assay: FBPase assay: inorganic phosphate release (malachite green); type: biochemical; details: recombinant human liver FBPase, 50 μM fructose-1,6-bisphosphate, read-out at 620 nm
T1 construct: made in house; host or cells: E. coli
T1 sequence (P09467 2-338 limits assumed): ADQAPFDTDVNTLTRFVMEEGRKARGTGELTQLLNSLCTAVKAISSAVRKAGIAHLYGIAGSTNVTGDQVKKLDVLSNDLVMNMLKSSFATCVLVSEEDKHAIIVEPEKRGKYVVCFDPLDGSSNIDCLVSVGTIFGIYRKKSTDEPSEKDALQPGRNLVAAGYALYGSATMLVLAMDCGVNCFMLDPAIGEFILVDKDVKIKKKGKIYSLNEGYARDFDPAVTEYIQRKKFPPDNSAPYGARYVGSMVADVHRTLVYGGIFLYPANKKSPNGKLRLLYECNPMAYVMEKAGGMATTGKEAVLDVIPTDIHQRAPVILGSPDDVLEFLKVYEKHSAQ
Method: The following tests were carried out for evaluating the inhibitory activity of the compounds of the present invention against human liver FBPase (Swissprot Data base reference P09467, entry F16P_HUMAN).
Human liver FBPase cDNA (NM_000507) was purchased from Origene Technologies, Inc, subcloned in a vector for expression in E. Coli., and sequenced. Recombinant human liver FBPase (hlFBPase) was purified according to the following protocol that uses heat denaturation similarly to that described by El-Maghrabi et. al. [El-Maghrabi, M. R. et al. “Isolation of a human liver fructose-1,6-bisphosphatase cDNA and expression of the protein in Escherichia coli.” J Biol Chem 268:9466-9472, 1993.]. Briefly, E. coli cells, transiently expressing very high levels of soluble and active human liver FBPase, were suspended in 20 mM Tris-HCl pH 7.5, 1 mM EDTA, 1 mM DTT and were lysed by French press. The soluble extract was heat denatured at 65° C. for 5 min, and insoluble, denatured proteins were removed by centrifugation. The extract was then applied to a BioRad Macro-Prep High Q column equilibrated with 20 mM Tris-HCl pH 7.5, 1 mM EDTA, 1 mM DTT and the flow-through (containing FBPase activity) was collected and applied to a BioRad Macro-Prep HS column equilibrated with 20 mM HEPES pH 7.2, 1 mM DTT. A gradient of increasing NaCl concentration was then applied to the HS column and fractions were collected. Fractions containing active FBPase were pooled and further purified by size exclusion chromatography on a Sephacryl S200 column equilibrated in 20 mM Tris-HCl pH 7.5, 150 mM NaCl, 1 mM EDTA, 1 mM DTT. Purity of the enzyme preparation was >90% as assessed by Mass spectrometry.
Recombinant human liver FBPase (hlFBPase) activity was assayed through measuring the inorganic phosphate release that results from the hydrolysis of Fructose-1,6-bisphosphate by the enzyme. As described by Baykov A. A. et al. in [Baykov A. A et al., “Malachite Green procedure for orthophosphate determination and its use in alkaline phosphatase-based enzyme immunoassays”. Anal. Biochem., 171:266-270, 1988], inorganic phosphate can be readily quantified by spectrophotometry at 620 nm after complexation with ammonium molybdate/malachite green reagent. Enzymatic reaction was carried out with modifications of the procedure described by Wright S. W. et al. [Wright S. W. et al., “Anilinoquinazoline inhibitors of Fructose-1,6-bisphosphatase bind to a novel allosteric site: synthesis, in vitro characterization, and X-ray crystallography”. J. Med. Chem. 45:3865-3877, 2002]. Specifically, the reaction was carried out in 96 well plates in a final volume of 100 μl in the presence or in the absence of allosteric inhibitors. Reaction was started adding 25 ng of hlFBPase to the reaction mixture containing 50 mM HEPES-KOH buffer pH 7.2, 2 mM MgCl2, 2 mM EDTA, 1 mM DTT, 50 μM fructose-1,6-bisphosphate and 1% DMSO. After 50 minutes incubation at room temperature, the phosphate released was allowed to form a colored complex for 10 min by adding 150 μl of ammonium molybdate/malachite green reagent containing 0.03% malachite green, 0.2% ammonium molybdate, 0.05% Triton X-100 and 0.7 M H2SO4 in water that was stirred for 30 min at room temperature and filtered through 0.2 μm filter. Under these conditions, the assay was linear with time and able to detect FBPase inhibition after spectrophotometric read-out at 620 nm.

Structure (SMILES)	IC50
CCc1sc(NC(=O)NS(=O)(=O)c2cc(C)c(CCOC)s2)nc1C [Example 60, N-[(5-Ethyl-4-methyl-1,3-thiazol-2-yl)carbamoyl]-5-(2-methoxyethyl)-4-methylthiophene-2-sulfonamide]	341 nM
CCc1nc(NC(=O)NS(=O)(=O)c2csc(C)c2)sc1CC [Example 62, N-[(4,5-Diethyl-1,3-thiazol-2-yl)carbamoyl]-5-methylthiophene-3-sulfonamide]	214 nM
CCc1nc(NC(=O)NS(=O)(=O)c2cc(C)c(CCOC)s2)sc1CC [Example 63, N-[(4,5-Diethyl-1,3-thiazol-2-yl)carbamoyl]-5-(2-methoxyethyl)-4-methylthiophene-2-sulfonamide]	393 nM
Cc1cc(S(=O)(=O)NC(=O)Nc2nc(-c3ccccc3)c(C)s2)cs1 [Example 65, 5-Methyl-N-[(5-methyl-4-phenyl-1,3-thiazol-2-yl)carbamoyl]thiophene-3-sulfonamide]	300 nM
COCCc1sc(S(=O)(=O)NC(=O)Nc2nc(-c3ccccc3)c(C)s2)cc1C [Example 66, 5-(2-Methoxyethyl)-4-methyl-N-[(5-methyl-4-phenyl-1,3-thiazol-2-)carbamoyl]thiophene-2-sulfonamide]	160 nM
CCc1nc(NC(=O)NS(=O)(=O)c2cc(C)c(CCOC(C)=O)s2)sc1CC [Example 67, 2-[5-({[(4,5-Diethyl-1,3-thiazol-2-yl)carbamoyl]amino}sulfonyl)-3-methyl-2-thienyl]ethyl acetate]	215 nM
CCc1sc(NC(=O)NS(=O)(=O)c2cc(C)c(CCOC(C)=O)s2)nc1C [Example 68, 2-[5-({[(5-Ethyl-4-methyl-1,3-thiazol-2-yl)carbamoyl]amino}sulfonyl)-3-methyl-2-thienyl]ethyl acetate]	149 nM
CCc1nc(NC(=O)NS(=O)(=O)c2cc(C)c(CCO)s2)sc1CC [Example 69, N-[(4,5-Diethyl-1,3-thiazol-2-yl)carbamoyl]-5-(2-hydroxyethyl)-4-methylthiophene-2-sulfonamide]	340 nM
CCc1sc(NC(=O)NS(=O)(=O)c2cc(C)c(CCO)s2)nc1C [Example 70, N-[(5-Ethyl-4-methyl-1,3-thiazol-2-yl)carbamoyl]-5-(2-hydroxyethyl)-4-methylthiophene-2-sulfonamide]	417 nM
CC(=O)OCCc1sc(S(=O)(=O)NC(=O)Nc2nc(-c3ccccc3)c(C)s2)cc1C [Example 73, 2-[3-Methyl-5-({[(5-methyl-4-phenyl-1,3-thiazol-2-yl)carbamoyl]amino}sulfonyl)-2-thienyl]ethyl acetate]	128 nM
COc1sc(NC(=O)NS(=O)(=O)c2cc(C)c(CCOC(C)=O)s2)nc1C [Example 74, 2-[5-({[(5-Methoxy-4-methyl-1,3-thiazol-2-yl)carbamoyl]amino}sulfonyl)-3-methyl-2-thienyl]ethyl acetate]	454 nM
Cc1cc(S(=O)(=O)NC(=O)Nc2nc(-c3ccccc3)c(C)s2)sc1CCO [Example 76, 5-(2-Hydroxyethyl)-4-methyl-N-[(5-methyl-4-phenyl-1,3-thiazol-2-yl)carbamoyl]thiophene-2-sulfonamide]	280 nM
CCc1sc(NC(=O)NS(=O)(=O)c2cc(C)c(CCO)s2)nc1-c1ccccc1 [Example 81, N-[(5-Ethyl-4-phenyl-1,3-thiazol-2-yl)carbamoyl]-5-(2-hydroxyethyl)-4-methylthiophene-2-sulfonamide]	102 nM
CCc1nc(NC(=O)NS(=O)(=O)c2cc(C)c(CCOC)s2)sc1SC [Example 82, N-{[4-Ethyl-5-(methylthio)-1,3-thiazol-2-yl]carbamoyl}-5-(2-methoxyethyl)-4-methylthiophene-2-sulfonamide]	144 nM
CSc1sc(NC(=O)NS(=O)(=O)c2cc(C)c(CCOC(C)=O)s2)nc1C [Example 85, 2-{3-Methyl-5-[({[4-methyl-5-(methylthio)-1,3-thiazol-2-yl]carbamoyl}amino)sulfonyl]-2-thienyl}ethyl acetate]	160 nM
CSc1sc(NC(=O)NS(=O)(=O)c2cc(C)c(CCO)s2)nc1C [Example 86, 5-(2-Hydroxyethyl)-4-methyl-N-{[4-methyl-5-(methylthio)-1,3-thiazol-2-yl]carbamoyl}thiophene-2-sulfonamide]	71 nM

The remaining compounds from weak to strong by IC50, led by results:

IC50	Structure (SMILES)
466 nM	CCc1nc(NC(=O)NS(=O)(=O)c2csc(C)c2)sc1OC [Example 61, N-[(4-Ethyl-5-methoxy-1,3-thiazol-2-yl)carbamoyl]-5-methylthiophene-3-sulfonamide]
366 nM	CCc1sc(NC(=O)NS(=O)(=O)c2cc(C)c(CCOC)s2)nc1C(C)C [Example 77, N-[(5-Ethyl-4-isopropyl-1,3-thiazol-2-yl)carbamoyl]-5-(2-methoxyethyl)-4-methylthiophene-2-sulfonamide]
256 nM	CCc1sc(NC(=O)NS(=O)(=O)c2cc(C)c(CCOC(C)=O)s2)nc1C(C)C [Example 75, 2-[5-({[(5-Ethyl-4-isopropyl-1,3-thiazol-2-yl)carbamoyl]amino}sulfonyl)-3-methyl-2-thienyl]ethyl acetate]
224 nM	CCc1sc(NC(=O)NS(=O)(=O)c2cc(C)c(CCOC)s2)nc1-c1ccccc1 [Example 72, N-[(5-Ethyl-4-phenyl-1,3-thiazol-2-yl)carbamoyl]-5-(2-methoxyethyl)-4-methylthiophene-2-sulfonamide]
188 nM	CC(=O)OCCc1sc(S(=O)(=O)NC(=O)Nc2nc(C)c(Br)s2)cc1C [Example 64, 2-[5-({[(5-Bromo-4-methyl-1,3-thiazol-2-yl)carbamoyl]amino}sulfonyl)-3-methyl-2-thienyl]ethyl acetate]
188 nM	CCc1sc(NC(=O)NS(=O)(=O)c2cc(C)c(CCO)s2)nc1C(C)C [Example 79, N-[(5-Ethyl-4-isopropyl-1,3-thiazol-2-yl)carbamoyl]-5-(2-hydroxyethyl)-4-methylthiophene-2-sulfonamide]
168 nM	CCc1sc(NC(=O)NS(=O)(=O)c2csc(C)c2)nc1C(C)C [Example 78, N-[(5-Ethyl-4-isopropyl-1,3-thiazol-2-yl)carbamoyl]-5-methylthiophene-3-sulfonamide]
161 nM	CCc1sc(NC(=O)NS(=O)(=O)c2cc(C)c(CCOC(C)=O)s2)nc1-c1ccccc1 [Example 80, 2-[5-({[(5-Ethyl-4-phenyl-1,3-thiazol-2-yl)carbamoyl]amino}sulfonyl)-3-methyl-2-thienyl]ethyl acetate]
159 nM	CCc1sc(NC(=O)NS(=O)(=O)c2csc(C)c2)nc1-c1ccccc1 [Example 71, N-[(5-Ethyl-4-phenyl-1,3-thiazol-2-yl)carbamoyl]-5-methylthiophene-3-sulfonamide]
134 nM	CCc1nc(NC(=O)NS(=O)(=O)c2cc(C)c(CCOC(C)=O)s2)sc1SC [Example 83, 2-{5-[({[4-Ethyl-5-(methylthio)-1,3-thiazol-2-yl]carbamoyl}amino)sulfonyl]-3-methyl-2-thienyl}ethyl acetate]
78 nM	CCc1nc(NC(=O)NS(=O)(=O)c2cc(C)c(CCO)s2)sc1SC [Example 84, N-{[4-Ethyl-5-(methylthio)-1,3-thiazol-2-yl]carbamoyl}-5-(2-hydroxyethyl)-4-methylthiophene-2-sulfonamide]

From patent US7973051B2 (Hoffman-La Roche Inc., priority 2007, dated 2011)
